In PubChem BioAssay (NCI):
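Method: 48-hour compound exposure of cells in 96-well plates, five concentrations, linear interpolation of endpoints. At the TGI there is no net growth.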

Legend:
Assay in all cases: NCI anticancer screen, dose series, 48 h
MALME-3M melanoma = tested on: MALME-3M melanoma
EKVX NSCLC = tested on: EKVX NSCLC
IGROV1 ovarian = tested on: IGROV1 ovarian
NCI-H522 lung = tested on: NCI-H522 lung
MCF7 breast = tested on: MCF7 breast
SK-OV-3 ovarian = tested on: SK-OV-3 ovarian
MDA-MB-435 = tested on: MDA-MB-435
SW-620 colon = tested on: SW-620 colon
COLO 205 colon = tested on: COLO 205 colon
OVCAR-4 ovarian = tested on: OVCAR-4 ovarian
OVCAR-5 ovarian = tested on: OVCAR-5 ovarian
HT29 colon = tested on: HT29 colon
HL-60(TB) leukemia = tested on: HL-60(TB) leukemia
SNB-75 CNS = tested on: SNB-75 CNS
OVCAR-8 ovarian = tested on: OVCAR-8 ovarian
SK-MEL-5 melanoma = tested on: SK-MEL-5 melanoma
HCT-15 colon = tested on: HCT-15 colon
UO-31 renal = tested on: UO-31 renal
HOP-62 NSCLC = tested on: HOP-62 NSCLC
SF-268 CNS = tested on: SF-268 CNS
NCI/ADR-RES ovarian = tested on: NCI/ADR-RES ovarian
UACC-62 melanoma = tested on: UACC-62 melanoma
CAKI-1 renal = tested on: CAKI-1 renal
OVCAR-3 ovarian = tested on: OVCAR-3 ovarian
HOP-92 NSCLC = tested on: HOP-92 NSCLC
SF-539 CNS = tested on: SF-539 CNS
SR leukemia = tested on: SR leukemia
MOLT-4 leukemia = tested on: MOLT-4 leukemia
PC-3 prostate = tested on: PC-3 prostate
CCRF-CEM leukemia = tested on: CCRF-CEM leukemia
U251 CNS = tested on: U251 CNS
SF-295 CNS = tested on: SF-295 CNS
NCI-H460 lung = tested on: NCI-H460 lung
A549 NSCLC = tested on: A549 NSCLC
ACHN renal = tested on: ACHN renal
LOX IMVI melanoma = tested on: LOX IMVI melanoma
786-0 renal = tested on: 786-0 renal
MDA-N = tested on: MDA-N
SN12C renal = tested on: SN12C renal
SK-MEL-28 melanoma = tested on: SK-MEL-28 melanoma
SNB-19 CNS = tested on: SNB-19 CNS
RPMI-8226 leukemia = tested on: RPMI-8226 leukemia
A498 renal = tested on: A498 renal
M14 melanoma = tested on: M14 melanoma
NCI-H23 lung = tested on: NCI-H23 lung
K-562 leukemia = tested on: K-562 leukemia
KM12 colon = tested on: KM12 colon
HCT-116 colon = tested on: HCT-116 colon
DU-145 prostate = tested on: DU-145 prostate
T-47D breast = tested on: T-47D breast
TK-10 renal = tested on: TK-10 renal
NCI-H226 lung = tested on: NCI-H226 lung
UACC-257 melanoma = tested on: UACC-257 melanoma
HS 578T breast = tested on: HS 578T breast
BT-549 breast = tested on: BT-549 breast
RXF 393 renal = tested on: RXF 393 renal
MDA-MB-231 breast = tested on: MDA-MB-231 breast
HCC-2998 colon = tested on: HCC-2998 colon
SK-MEL-2 melanoma = tested on: SK-MEL-2 melanoma

## Cc1ccc(C2=C(Cl)C(=O)C(c3ccc(C)cc3)=C(Cl)C2=O)cc1
MALME-3M melanoma
  TGI: > 100 µM
EKVX NSCLC
  TGI: > 100 µM
IGROV1 ovarian
  TGI: > 100 µM
NCI-H522 lung
  TGI: > 100 µM
MCF7 breast
  TGI: > 100 µM
SK-OV-3 ovarian
  TGI: > 100 µM
MDA-MB-435
  TGI: > 100 µM
SW-620 colon
  TGI: > 100 µM
COLO 205 colon
  TGI: > 100 µM
OVCAR-4 ovarian
  TGI: > 100 µM
OVCAR-5 ovarian
  TGI: > 100 µM
HT29 colon
  TGI: > 100 µM
HL-60(TB) leukemia
  TGI: > 100 µM
SNB-75 CNS
  TGI: > 100 µM
OVCAR-8 ovarian
  TGI: > 100 µM
SK-MEL-5 melanoma
  TGI: > 100 µM
HCT-15 colon
  TGI: > 100 µM
UO-31 renal
  TGI: > 100 µM
HOP-62 NSCLC
  TGI: > 100 µM
SF-268 CNS
  TGI: > 100 µM
NCI/ADR-RES ovarian
  TGI: > 100 µM
UACC-62 melanoma
  TGI: > 100 µM
CAKI-1 renal
  TGI: > 100 µM
OVCAR-3 ovarian
  TGI: > 100 µM
HOP-92 NSCLC
  TGI: > 100 µM
SF-539 CNS
  TGI: > 100 µM
SR leukemia
  TGI: > 100 µM
MOLT-4 leukemia
  TGI: > 100 µM
PC-3 prostate
  TGI: > 100 µM
CCRF-CEM leukemia
  TGI: > 100 µM
U251 CNS
  TGI: > 100 µM
SF-295 CNS
  TGI: > 100 µM
NCI-H460 lung
  TGI: > 100 µM
A549 NSCLC
  TGI: > 100 µM
ACHN renal
  TGI: > 100 µM
LOX IMVI melanoma
  TGI: > 100 µM
786-0 renal
  TGI: > 100 µM
MDA-N
  TGI: > 100 µM
SN12C renal
  TGI: > 100 µM
SK-MEL-28 melanoma
  TGI: > 100 µM
SNB-19 CNS
  TGI: > 100 µM
RPMI-8226 leukemia
  TGI: > 100 µM
A498 renal
  TGI: > 100 µM
M14 melanoma
  TGI: > 100 µM
NCI-H23 lung
  TGI: > 100 µM
K-562 leukemia
  TGI: > 100 µM
KM12 colon
  TGI: > 100 µM
HCT-116 colon
  TGI: > 100 µM
DU-145 prostate
  TGI: > 100 µM
T-47D breast
  TGI: > 100 µM
TK-10 renal
  TGI: > 100 µM
NCI-H226 lung
  TGI: > 100 µM
UACC-257 melanoma
  TGI: > 100 µM
HS 578T breast
  TGI: > 100 µM
BT-549 breast
  TGI: > 100 µM
RXF 393 renal
  TGI: > 100 µM

## C=CCOC(=O)N1c2ccc(O)cc2[C@@]23O[C@@]24[C@@H]1C#C/C=C\C#C[C@]3(O)C(=O)C[C@@H]4C
MALME-3M melanoma
  TGI: > 100 µM
EKVX NSCLC
  TGI: > 100 µM
IGROV1 ovarian
  TGI: > 100 µM
NCI-H522 lung
  TGI: > 100 µM
MCF7 breast
  TGI: > 100 µM
MDA-MB-435
  TGI: > 100 µM
SW-620 colon
  TGI: > 100 µM
COLO 205 colon
  TGI: > 100 µM
OVCAR-4 ovarian
  TGI: 50.1 µM
OVCAR-5 ovarian
  TGI: > 100 µM
HT29 colon
  TGI: > 100 µM
HL-60(TB) leukemia
  TGI: > 100 µM
SNB-75 CNS
  TGI: > 100 µM
OVCAR-8 ovarian
  TGI: > 100 µM
SK-MEL-5 melanoma
  TGI: > 100 µM
HCT-15 colon
  TGI: > 100 µM
UO-31 renal
  TGI: > 100 µM
HOP-62 NSCLC
  TGI: > 100 µM
SF-268 CNS
  TGI: > 100 µM
NCI/ADR-RES ovarian
  TGI: > 100 µM
UACC-62 melanoma
  TGI: > 100 µM
CAKI-1 renal
  TGI: > 100 µM
HOP-92 NSCLC
  TGI: > 100 µM
SF-539 CNS
  TGI: > 100 µM
SR leukemia
  TGI: 42.3 µM
MOLT-4 leukemia
  TGI: 49.4 µM
MDA-MB-231 breast
  TGI: > 100 µM
PC-3 prostate
  TGI: > 100 µM
CCRF-CEM leukemia
  TGI: > 100 µM
HCC-2998 colon
  TGI: > 100 µM
U251 CNS
  TGI: > 100 µM
SF-295 CNS
  TGI: > 100 µM
NCI-H460 lung
  TGI: > 100 µM
A549 NSCLC
  TGI: > 100 µM
ACHN renal
  TGI: > 100 µM
786-0 renal
  TGI: > 100 µM
MDA-N
  TGI: > 100 µM
SN12C renal
  TGI: > 100 µM
SK-MEL-2 melanoma
  TGI: > 100 µM
SK-MEL-28 melanoma
  TGI: > 100 µM
SNB-19 CNS
  TGI: > 100 µM
RPMI-8226 leukemia
  TGI: > 100 µM
A498 renal
  TGI: > 100 µM
M14 melanoma
  TGI: > 100 µM
NCI-H23 lung
  TGI: > 100 µM
K-562 leukemia
  TGI: > 100 µM
KM12 colon
  TGI: > 100 µM
HCT-116 colon
  TGI: > 100 µM
DU-145 prostate
  TGI: > 100 µM
T-47D breast
  TGI: > 100 µM
TK-10 renal
  TGI: > 100 µM
NCI-H226 lung
  TGI: > 100 µM
UACC-257 melanoma
  TGI: > 100 µM
HS 578T breast
  TGI: > 100 µM
RXF 393 renal
  TGI: > 100 µM
